In PubChem BioAssay (NCI):
Several values for one entry are separate records, joined by “and”; a condition that tells them apart may be missing. Equal values may be shown once.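 How tested: cells in 96-well plates exposed to compound for 48 hours at five concentrations. GI50: concentration for 50% inhibition of growth. Definition used: TGI = concentration required for complete inhibition of growth.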

Key:
Assay in all cases: NCI tumour cell line growth inhibition, 48 h
[1] = tested on: CCRF-CEM leukemia
[2] = tested on: EKVX NSCLC
[3] = tested on: HOP-62 NSCLC
[4] = tested on: HOP-92 NSCLC
[5] = tested on: M14 melanoma
[6] = tested on: MCF7 breast
[7] = tested on: MDA-MB-231 breast
[8] = tested on: MDA-MB-435
[9] = tested on: RPMI-8226 leukemia
[10] = tested on: RXF 393 renal

## COc1ccc(CCN2COc3ccc4ccc(=O)oc4c3C2)cc1OC
[1]
  TGI: 54.8 µM
[2]
  TGI: > 100 µM
[3]
  TGI: > 100 µM
[4]
  TGI: > 100 µM
[5]
  TGI: > 100 µM
[6]
  TGI: > 100 µM
[7]
  TGI: > 100 µM
[8]
  TGI: > 100 µM
[9]
  TGI: 52.8 µM
[10]
  TGI: > 100 µM

## CC#CC(=O)N[C@H]1CCCN(c2c(F)cc(C(N)=O)c3[nH]c(C)c(C)c23)C1
[1]
  GI50: 27.5 µM
  TGI: 85 µM
[2]
  GI50: 18.3 µM
  TGI: 45.9 µM
[3]
  GI50: 24.9 µM
  TGI: > 100 µM
[4]
  GI50: 15.6 µM
  TGI: 64.7 µM
[5]
  GI50: 18.6 µM
  TGI: 42 µM
[6]
  GI50: 17.3 µM
  TGI: 36 µM
[7]
  GI50: 14 µM
  TGI: 29.1 µM
[8]
  GI50: 16.6 µM
  TGI: 34 µM
[9]
  GI50: 16.5 µM
  TGI: 44.8 µM
[10]
  GI50: 12.6 µM
  TGI: 26.6 µM

## CN1CCN(CCCOc2ccc3nc(Nc4ccc(C(F)(F)F)c(Cl)c4)ccc3c2)CC1
[1]
  GI50: 1.57 µM
  TGI: 3.64 µM
[2]
  GI50: 1.74 µM
  TGI: 3.63 µM
[3]
  GI50: 1.63 µM
  TGI: 3.18 µM
[4]
  GI50: 1.15 µM
  TGI: 2.94 µM
[5]
  GI50: 1.71 µM
  TGI: 3.32 µM
[6]
  GI50: 1.37 µM
  TGI: 3.56 µM
[7]
  GI50: 1.13 µM
  TGI: 2.75 µM
[8]
  GI50: 1.63 µM
  TGI: 3.16 µM
[9]
  GI50: 1.75 µM
  TGI: 4.12 µM
[10]
  GI50: 1.42 µM
  TGI: 3.03 µM

## O=C(O)C1CCCCC1C(=O)Nc1nc2ccccc2[nH]1 (configuration not stated)
[1]
  TGI: > 100 µM
[2]
  TGI: > 100 µM
[3]
  TGI: > 100 µM
[4]
  TGI: > 100 µM
[5]
  TGI: > 100 µM
[6]
  TGI: > 100 µM
[7]
  TGI: > 100 µM
[8]
  TGI: > 100 µM
[9]
  TGI: > 100 µM
[10]
  TGI: > 100 µM

## O=C(O)CP(=O)(c1ccccc1)c1ccccc1.O=C(O)CP(=O)(c1ccccc1)c1ccccc1.[Cd]
[3]
  GI50: 18.6 µM
  TGI: 46.1 µM
[4]
  GI50: 18.4 µM
  TGI: 33.7 µM
[5]
  GI50: 17.3 µM
  TGI: 53.8 µM
[6]
  GI50: 27.2 µM
  TGI: > 100 µM
[7]
  GI50: 15.7 µM
  TGI: 32.2 µM
[8]
  GI50: 4.26 µM
  TGI: 22.4 µM
[9]
  GI50: 0.277 µM
  TGI: 0.991 µM
[10]
  GI50: 68.8 µM
  TGI: > 100 µM

## Cc1[nH]c2ccccc2c1C1=CC(=O)C=CC1=O
[2]
  GI50: 17.7 µM
  TGI: 45 µM
[4]
  GI50: 13 µM
  TGI: 26.3 µM
[5]
  GI50: 13.6 µM
  TGI: 27.7 µM
[6]
  GI50: 9.9 µM
  TGI: 28.8 µM
[7]
  GI50: 12.9 µM
  TGI: 29.2 µM
[8]
  GI50: 5.04 µM
  TGI: 23.5 µM
[9]
  GI50: 11 µM
  TGI: 38.2 µM
[10]
  GI50: 10.6 µM
  TGI: 22.9 µM

## COCO[C@@H]1CC2C=Nc3cc(OCc4ccccc4)c(OC)cc3C(=O)N2C1 (some centres not stated)
[1]
  GI50: 0.313 µM
  TGI: 21.6 µM
[2]
  GI50: 1.09 µM
  TGI: 4.85 µM
[3]
  GI50: 0.351 µM
  TGI: 2.8 µM
[4]
  GI50: 0.456 µM
  TGI: 6.83 µM
[5]
  GI50: 0.42 µM
  TGI: 1.39 µM
[6]
  GI50: 0.273 µM
  TGI: > 35.4 µM
[7]
  GI50: 0.248 µM
  TGI: 1.57 µM
[8]
  GI50: 0.455 µM
  TGI: 1.86 µM
[9]
  GI50: 0.211 µM
  TGI: > 20.8 µM
[10]
  GI50: 0.242 µM
  TGI: 0.972 µM

## CNc1ccc(C(=O)CC(O)CCC(C)C2OC(=O)CC(O)CC(=O)CC(O)CC(O)CC(O)CC(O)CC3(O)CC(O)C(C(=O)NCCc4ccccn4)C(CC(OC4OC(C)C(O)C(N)C4O)/C=C/C=C/C=C/C=C\C=C/C=C/C=C/C2C)O3)cc1 (configuration not stated)
[1]
  GI50: 1.77 µM
  TGI: > 50 µM
[2]
  GI50: 0.134 µM
  TGI: 0.49 µM
[4]
  GI50: 1.48 µM
  TGI: 19.2 µM
[5]
  GI50: 0.165 µM
[6]
  GI50: 1.25 µM
  TGI: 10.4 µM
[7]
  GI50: 6.23 µM
  TGI: > 21.2 µM
[8]
  GI50: 0.128 µM
  TGI: 0.406 µM
[9]
  GI50: 0.823 µM
  TGI: > 50 µM
[10]
  GI50: 1.05 µM
  TGI: 30.4 µM

## O=C(NCc1cccs1)OC1CC2CCC1C2 (configuration not stated)
[1]
  TGI: > 100 µM
[2]
  TGI: > 100 µM
[3]
  TGI: > 100 µM
[4]
  TGI: > 100 µM
[5]
  TGI: > 100 µM
[6]
  TGI: > 100 µM
[7]
  TGI: > 100 µM
[8]
  TGI: > 100 µM
[9]
  TGI: > 100 µM
[10]
  TGI: > 100 µM

## COc1ccc(OC)c(-c2cc(C(=O)O)c3cc4ccccc4cc3n2)c1
[2]
  TGI: > 100 µM
[3]
  TGI: > 100 µM
[4]
  TGI: > 100 µM
[5]
  TGI: > 100 µM
[6]
  TGI: > 100 µM
[7]
  TGI: > 100 µM
[8]
  TGI: > 100 µM
[9]
  TGI: > 100 µM
[10]
  TGI: > 100 µM

## [O]=[W](=[O])([OH])[OH]
[1]
  GI50: > 100 µM
  TGI: > 100 µM
[4]
  GI50: > 100 µM
  TGI: > 100 µM
[5]
  GI50: > 100 µM
  TGI: > 100 µM
[6]
  GI50: > 100 µM
  TGI: > 100 µM
[7]
  GI50: > 100 µM
  TGI: > 100 µM
[8]
  GI50: > 100 µM
  TGI: > 100 µM
[9]
  GI50: > 100 µM
  TGI: > 100 µM
[10]
  GI50: > 100 µM
  TGI: > 100 µM

## C(=C\c1nc2ccccc2s1)/c1ccc(N2CCOCC2)s1
[1]
  GI50: 55.7 µM
  TGI: > 100 µM
[2]
  GI50: 30.1 µM
  TGI: > 100 µM
[3]
  GI50: 45.5 µM
  TGI: > 100 µM
[4]
  GI50: 35.7 µM
  TGI: 95.3 µM
[5]
  GI50: > 100 µM
  TGI: > 100 µM
[6]
  GI50: 75 µM
  TGI: > 100 µM
[7]
  GI50: > 100 µM
  TGI: > 100 µM
[8]
  GI50: > 100 µM
  TGI: > 100 µM
[9]
  GI50: 25.6 µM
  TGI: > 100 µM
[10]
  GI50: 31.3 µM
  TGI: > 100 µM

## CN1CCN(CCCN2c3ccccc3Sc3ccc(C(F)(F)F)cc32)CC1
[1]
  GI50: 2.35 µM and 2.17 µM and 8.25 µM
  TGI: 6 µM and 6.52 µM and 26.5 µM
[2]
  GI50: 2.34 µM
  TGI: 10.8 µM and 27.9 µM and 28.3 µM
[3]
  GI50: 1.73 µM
  TGI: 3.94 µM and 24.9 µM and 26.5 µM
[4]
  GI50: 1.07 µM and 2.26 µM and 7.54 µM
  TGI: 4.35 µM and 10.4 µM and 20.5 µM
[5]
  TGI: 3.53 µM and 3.38 µM and 3.35 µM
[6]
  GI50: 1.77 µM
  TGI: 3.29 µM and 18.7 µM
[7]
  GI50: 1.75 µM and 6.11 µM and 1.7 µM
  TGI: 3.87 µM and 19.9 µM and 5.08 µM
[8]
  GI50: 1.69 µM
  TGI: 3.29 µM and 9.49 µM and 11.4 µM
[9]
  GI50: 2.21 µM and 2.06 µM and 6.37 µM
  TGI: 5.09 µM and 22.1 µM
[10]
  GI50: 1.78 µM and 10 µM and 4.08 µM
  TGI: 4.62 µM and 23.1 µM and 15.5 µM

## NCC(=O)NC(CO)C(=O)O (configuration not stated)
[1]
  TGI: > 100 µM
[2]
  TGI: > 100 µM
[3]
  TGI: > 100 µM
[4]
  TGI: > 100 µM
[5]
  TGI: > 100 µM
[6]
  TGI: > 100 µM
[7]
  TGI: > 100 µM
[8]
  TGI: > 100 µM
[9]
  TGI: > 100 µM
[10]
  TGI: > 100 µM

## Cc1nc2sc(C(=O)Nc3cccc(Cl)c3C)c(N)c2cc1C(=O)c1ccccc1
[1]
  GI50: 0.18 µM
  TGI: > 50 µM
[2]
  GI50: 0.292 µM
  TGI: > 50 µM
[3]
  GI50: 0.296 µM
  TGI: > 50 µM
[4]
  GI50: 0.259 µM
  TGI: > 23.7 µM
[5]
  GI50: 0.214 µM
  TGI: > 50 µM
[6]
  GI50: 0.168 µM
  TGI: > 50 µM
[7]
  GI50: 0.463 µM
  TGI: > 50 µM
[8]
  GI50: 0.0988 µM
  TGI: 0.257 µM
[9]
  GI50: 0.249 µM
  TGI: > 15.9 µM
[10]
  GI50: 0.198 µM
